Measured values reported in paper PMC5666424, “Marine-Derived 2-Aminoimidazolone Alkaloids. Leucettamine B-Related Polyandrocarpamines Inhibit Mammalian and Protozoan DYRK & CLK Kinases” (Marine Drugs, 2017).

Columns and labels:
Assay in all cases: KinomeScan
Format in all cases: binding
Details in all cases: 1 μM
GRK7 = target: T1, GRK7 (Homo sapiens, UniProt Q8WTQ7)
T1 construct: purchased DiscoverX (KINOMEscan)
Experimental: (§1) Assays were performed essentially as described previously. For most assays, kinase-tagged T7 phage strains were grown in parallel in 24-well blocks in an E. coli host derived from the BL21 strain. E. coli were grown to log-phase and infected with T7 phage from a frozen stock (multiplicity of infection ~0.1) and incubated with shaking at 32 °C until lysis (~90 min). The lysates were centrifuged (6000× g) and filtered (0.2 μm) to remove cell debris. The remaining kinases were produced in HEK-293 cells and subsequently tagged with DNA for qPCR detection. […] The liganded beads were blocked with excess biotin and washed with blocking buffer (SeaBlock (Pierce, ThermoFisher Scientific, Illkirch, France), 1% BSA, 0.05% Tween 20, 1 mM DTT) to remove unbound ligand and to reduce non-specific phage binding. […] An 11-point threefold serial dilution of each test compound was prepared in 100% DMSO at 100× final test concentration which and subsequently diluted to 1× in the assay. All reactions were performed in polystyrene 96-well plates in a final volume of 0.135 mL. […] The kinase concentration in the eluates was measured by qPCR.

CIT = target: T2, CIT (Homo sapiens, UniProt O14578)
T2 construct: purchased DiscoverX (KINOMEscan)
Experimental: as §1

EIF2AK1 = target: T3, EIF2AK1 (Homo sapiens, UniProt Q9BQI3)
T3 construct: purchased DiscoverX (KINOMEscan)
Experimental: as §1

CDK4-cyclinD1 = target: T4, CDK4-cyclinD1 (Homo sapiens, UniProt P11802)
T4 construct: purchased DiscoverX (KINOMEscan)
Experimental: as §1

NEK6 = target: T5, NEK6 (Homo sapiens, UniProt Q9HC98)
T5 construct: purchased DiscoverX (KINOMEscan)
Experimental: as §1

MELK = target: T6, MELK (Homo sapiens, UniProt Q14680)
T6 construct: purchased DiscoverX (KINOMEscan)
Experimental: as §1

MUSK = target: T7, MUSK (Homo sapiens, UniProt O15146)
T7 construct: purchased DiscoverX (KINOMEscan)
Experimental: as §1

CDK4-cyclinD3 = target: T8, CDK4-cyclinD3 (Homo sapiens, UniProt P11802)
T8 construct: purchased DiscoverX (KINOMEscan)
Experimental: as §1

AURKA = target: T9, AURKA (Homo sapiens, UniProt O14965)
T9 construct: purchased DiscoverX (KINOMEscan)
T9 sequence (O14965 whole entry): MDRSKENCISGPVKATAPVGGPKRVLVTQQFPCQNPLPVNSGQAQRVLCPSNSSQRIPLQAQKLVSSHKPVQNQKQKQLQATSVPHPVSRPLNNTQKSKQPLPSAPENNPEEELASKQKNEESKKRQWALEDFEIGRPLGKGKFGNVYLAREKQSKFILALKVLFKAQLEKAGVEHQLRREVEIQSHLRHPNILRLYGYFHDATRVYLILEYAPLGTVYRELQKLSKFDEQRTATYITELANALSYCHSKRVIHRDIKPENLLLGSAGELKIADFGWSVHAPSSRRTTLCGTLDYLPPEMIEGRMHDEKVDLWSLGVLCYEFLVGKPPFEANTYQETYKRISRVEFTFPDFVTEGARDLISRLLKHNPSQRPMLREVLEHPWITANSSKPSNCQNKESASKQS
Experimental: as §1

[1] = target: T10, TYK2(JH1domain-catalytic) (Homo sapiens, UniProt P29597)
T10 construct: TYK2(JH1domain-catalytic); purchased DiscoverX (KINOMEscan)
T10 sequence (P29597 871-1187 limits assumed): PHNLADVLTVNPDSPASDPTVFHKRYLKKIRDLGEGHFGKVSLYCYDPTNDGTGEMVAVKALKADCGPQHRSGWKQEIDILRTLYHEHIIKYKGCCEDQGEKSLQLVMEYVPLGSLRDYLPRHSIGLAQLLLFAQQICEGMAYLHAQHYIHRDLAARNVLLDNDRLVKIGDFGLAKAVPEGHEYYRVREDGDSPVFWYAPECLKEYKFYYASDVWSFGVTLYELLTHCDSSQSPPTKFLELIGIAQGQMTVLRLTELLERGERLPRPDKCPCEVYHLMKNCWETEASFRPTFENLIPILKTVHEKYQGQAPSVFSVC
Experimental: as §1

TAK1 = target: T11, TAK1 (Homo sapiens, UniProt O43318)
T11 construct: purchased DiscoverX (KINOMEscan)
T11 sequence (O43318 whole entry): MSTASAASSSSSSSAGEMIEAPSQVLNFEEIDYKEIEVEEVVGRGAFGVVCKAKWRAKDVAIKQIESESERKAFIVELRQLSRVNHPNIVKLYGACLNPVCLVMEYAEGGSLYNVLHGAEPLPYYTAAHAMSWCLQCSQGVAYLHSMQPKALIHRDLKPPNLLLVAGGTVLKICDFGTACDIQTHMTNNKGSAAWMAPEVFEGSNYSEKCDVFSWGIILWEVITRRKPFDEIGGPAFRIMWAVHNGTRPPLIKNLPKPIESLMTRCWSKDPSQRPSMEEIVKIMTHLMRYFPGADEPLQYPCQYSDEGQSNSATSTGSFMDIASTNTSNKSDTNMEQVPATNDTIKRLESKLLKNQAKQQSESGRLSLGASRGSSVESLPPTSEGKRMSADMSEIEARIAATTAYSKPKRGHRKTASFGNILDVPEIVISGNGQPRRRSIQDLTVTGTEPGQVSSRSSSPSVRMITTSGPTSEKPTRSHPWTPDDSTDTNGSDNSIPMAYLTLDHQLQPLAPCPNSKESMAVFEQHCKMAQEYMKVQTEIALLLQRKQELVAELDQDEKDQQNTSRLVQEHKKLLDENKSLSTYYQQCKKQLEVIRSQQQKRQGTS
Experimental: as §1

DDR1 = target: T12, DDR1 (Homo sapiens, UniProt Q08345)
T12 construct: purchased DiscoverX (KINOMEscan)
Experimental: as §1

NEK11 = target: T13, NEK11 (Homo sapiens, UniProt Q8NG66)
T13 construct: purchased DiscoverX (KINOMEscan)
T13 sequence (Q8NG66 whole entry): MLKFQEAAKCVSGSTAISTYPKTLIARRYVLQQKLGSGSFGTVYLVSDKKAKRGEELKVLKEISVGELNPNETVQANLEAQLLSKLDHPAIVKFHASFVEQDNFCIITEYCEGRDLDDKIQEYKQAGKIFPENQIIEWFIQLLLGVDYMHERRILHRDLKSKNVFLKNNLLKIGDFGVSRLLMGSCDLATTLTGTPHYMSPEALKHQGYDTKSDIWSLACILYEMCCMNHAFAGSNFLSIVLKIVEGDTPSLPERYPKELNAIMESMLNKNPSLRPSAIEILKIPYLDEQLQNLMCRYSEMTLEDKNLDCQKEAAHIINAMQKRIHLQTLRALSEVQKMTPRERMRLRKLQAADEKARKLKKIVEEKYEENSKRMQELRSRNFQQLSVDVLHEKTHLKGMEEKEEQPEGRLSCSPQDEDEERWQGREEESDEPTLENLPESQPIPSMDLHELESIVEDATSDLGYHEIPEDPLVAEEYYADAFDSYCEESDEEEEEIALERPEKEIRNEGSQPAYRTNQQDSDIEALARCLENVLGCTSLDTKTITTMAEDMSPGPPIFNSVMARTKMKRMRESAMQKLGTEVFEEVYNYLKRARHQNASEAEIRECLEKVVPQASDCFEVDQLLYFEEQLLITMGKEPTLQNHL
Experimental: as §1

[2] = target: T14, RPS6KA4 (Kin.Dom.2-C-terminal) (Homo sapiens, UniProt O75676)
T14 construct: Kin.Dom.2-C-terminal; purchased DiscoveRx (KinomeScan, San Diego, CA, USA)
Experimental: as §1

TAOK3 = target: T15, TAOK3 (Homo sapiens, UniProt Q9H2K8)
T15 construct: purchased DiscoverX (KINOMEscan)
Experimental: as §1

KIT(V559D,V654A) = target: T16, KIT(V559D,V654A) (Homo sapiens, UniProt P10721, V559D/V654A)
T16 construct: purchased DiscoverX (KINOMEscan)
Experimental: as §1

KIT(A829P) = target: T17, KIT(A829P) (Homo sapiens, UniProt P10721, A829P)
T17 construct: purchased DiscoverX (KINOMEscan)
Experimental: as §1

TYRO3 = target: T18, TYRO3 (Homo sapiens, UniProt Q06418)
T18 construct: purchased DiscoverX (KINOMEscan)
Experimental: as §1

MLCK = target: T19, MLCK (Homo sapiens, UniProt Q32MK0)
T19 construct: purchased DiscoverX (KINOMEscan)
Experimental: as §1

EGFR(E746-A750del) = target: T20, EGFR(E746-A750del) (Homo sapiens, UniProt P00533, DEL746-750)
T20 construct: purchased DiscoverX (KINOMEscan)
Experimental: as §1

BIKE = target: T21, BIKE (Homo sapiens, UniProt Q9NSY1)
T21 construct: purchased DiscoverX (KINOMEscan)
Experimental: as §1

EPHA5 = target: T22, EPHA5 (Homo sapiens, UniProt P54756)
T22 construct: purchased DiscoverX (KINOMEscan)
Experimental: as §1

OSR1 = target: T23, OSR1 (Homo sapiens, UniProt O95747)
T23 construct: purchased DiscoverX (KINOMEscan)
Experimental: as §1

MYLK = target: T24, MYLK (Homo sapiens, UniProt Q15746)
T24 construct: purchased DiscoverX (KINOMEscan)
Experimental: as §1

FLT3(N841I) = target: T25, FLT3(N841I) (Homo sapiens, UniProt P36888, N841I)
T25 construct: purchased DiscoverX (KINOMEscan)
Experimental: as §1

CTK = target: T26, CTK (Homo sapiens, UniProt P42679)
T26 construct: purchased DiscoverX (KINOMEscan)
Experimental: as §1

CLK4 = target: T27, CLK4 (Homo sapiens, UniProt Q9HAZ1)
T27 construct: purchased DiscoverX (KINOMEscan)
Experimental: as §1

ERK3 = target: T28, ERK3 (Homo sapiens, UniProt Q16659)
T28 construct: purchased DiscoverX (KINOMEscan)
Experimental: as §1

LRRK2(G2019S) = target: T29, LRRK2(G2019S) (Homo sapiens, UniProt Q5S007, G2019S)
T29 construct: purchased DiscoverX (KINOMEscan)
Experimental: as §1

MRCKB = target: T30, MRCKB (Homo sapiens, UniProt Q9Y5S2)
T30 construct: purchased DiscoverX (KINOMEscan)
T30 sequence (Q9Y5S2 whole entry): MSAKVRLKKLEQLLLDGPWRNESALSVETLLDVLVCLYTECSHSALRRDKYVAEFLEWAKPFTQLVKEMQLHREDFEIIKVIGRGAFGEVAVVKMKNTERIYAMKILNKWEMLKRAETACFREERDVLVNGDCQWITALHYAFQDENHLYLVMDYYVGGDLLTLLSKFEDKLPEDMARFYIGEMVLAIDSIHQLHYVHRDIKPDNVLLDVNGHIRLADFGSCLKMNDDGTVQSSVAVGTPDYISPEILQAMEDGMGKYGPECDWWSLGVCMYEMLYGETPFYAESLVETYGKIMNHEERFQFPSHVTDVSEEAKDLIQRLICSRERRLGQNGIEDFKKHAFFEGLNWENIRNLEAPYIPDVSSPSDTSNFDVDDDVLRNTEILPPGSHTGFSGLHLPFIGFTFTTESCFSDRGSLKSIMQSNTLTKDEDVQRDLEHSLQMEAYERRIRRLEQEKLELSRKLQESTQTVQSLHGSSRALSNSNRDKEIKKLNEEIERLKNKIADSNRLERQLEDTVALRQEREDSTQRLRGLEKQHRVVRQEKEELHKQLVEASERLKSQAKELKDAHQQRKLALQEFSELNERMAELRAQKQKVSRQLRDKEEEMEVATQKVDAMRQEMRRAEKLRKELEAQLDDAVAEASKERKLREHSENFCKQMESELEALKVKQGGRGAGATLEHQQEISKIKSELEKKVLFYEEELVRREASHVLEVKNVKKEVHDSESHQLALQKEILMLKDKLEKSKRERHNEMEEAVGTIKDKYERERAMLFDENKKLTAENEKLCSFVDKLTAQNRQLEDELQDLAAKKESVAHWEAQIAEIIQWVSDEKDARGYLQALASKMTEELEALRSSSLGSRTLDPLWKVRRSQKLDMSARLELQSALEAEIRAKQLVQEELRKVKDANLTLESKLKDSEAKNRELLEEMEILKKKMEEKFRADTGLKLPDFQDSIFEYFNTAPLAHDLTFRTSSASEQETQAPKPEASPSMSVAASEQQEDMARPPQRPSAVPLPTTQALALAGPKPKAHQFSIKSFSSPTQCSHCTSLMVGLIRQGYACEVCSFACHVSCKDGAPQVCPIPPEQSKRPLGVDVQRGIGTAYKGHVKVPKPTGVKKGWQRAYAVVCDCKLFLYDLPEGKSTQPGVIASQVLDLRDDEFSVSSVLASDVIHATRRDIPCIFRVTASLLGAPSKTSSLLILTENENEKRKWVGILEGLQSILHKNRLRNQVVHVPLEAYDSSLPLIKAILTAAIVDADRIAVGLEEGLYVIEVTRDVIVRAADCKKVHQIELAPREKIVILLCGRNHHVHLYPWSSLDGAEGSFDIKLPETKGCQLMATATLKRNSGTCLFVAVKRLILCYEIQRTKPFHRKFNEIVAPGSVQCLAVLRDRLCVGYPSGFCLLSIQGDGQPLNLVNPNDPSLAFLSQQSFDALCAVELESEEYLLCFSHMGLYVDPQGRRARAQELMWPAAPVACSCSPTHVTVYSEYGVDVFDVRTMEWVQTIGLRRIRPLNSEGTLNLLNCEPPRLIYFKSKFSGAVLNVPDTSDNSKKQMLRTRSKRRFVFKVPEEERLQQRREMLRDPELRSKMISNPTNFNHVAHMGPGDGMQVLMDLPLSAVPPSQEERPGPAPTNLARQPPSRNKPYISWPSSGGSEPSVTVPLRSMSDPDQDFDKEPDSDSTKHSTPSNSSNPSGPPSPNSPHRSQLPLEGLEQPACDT
Experimental: as §1

AURKC = target: T31, AURKC (Homo sapiens, UniProt Q9UQB9)
T31 construct: purchased DiscoverX (KINOMEscan)
Experimental: as §1

NIM1 = target: T32, NIM1 (Homo sapiens, UniProt Q8IY84)
T32 construct: purchased DiscoverX (KINOMEscan)
T32 sequence (Q8IY84 whole entry): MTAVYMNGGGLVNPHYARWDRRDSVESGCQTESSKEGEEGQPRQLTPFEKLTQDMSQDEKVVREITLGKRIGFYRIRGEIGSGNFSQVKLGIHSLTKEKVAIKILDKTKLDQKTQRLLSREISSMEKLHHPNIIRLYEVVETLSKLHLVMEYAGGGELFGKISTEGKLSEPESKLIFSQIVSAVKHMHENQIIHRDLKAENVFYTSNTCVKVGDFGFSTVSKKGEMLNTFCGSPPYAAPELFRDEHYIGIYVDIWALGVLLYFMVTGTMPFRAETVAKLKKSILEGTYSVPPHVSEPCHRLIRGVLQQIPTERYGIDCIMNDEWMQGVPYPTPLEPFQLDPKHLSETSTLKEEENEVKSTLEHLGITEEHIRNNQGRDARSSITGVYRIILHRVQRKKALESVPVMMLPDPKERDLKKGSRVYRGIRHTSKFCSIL
Experimental: as §1

GAK = target: T33, GAK (Homo sapiens, UniProt O14976)
T33 construct: purchased DiscoverX (KINOMEscan)
Experimental: as §1

FER = target: T34, FER (Homo sapiens, UniProt P16591)
T34 construct: purchased DiscoverX (KINOMEscan)
T34 sequence (P16591 whole entry): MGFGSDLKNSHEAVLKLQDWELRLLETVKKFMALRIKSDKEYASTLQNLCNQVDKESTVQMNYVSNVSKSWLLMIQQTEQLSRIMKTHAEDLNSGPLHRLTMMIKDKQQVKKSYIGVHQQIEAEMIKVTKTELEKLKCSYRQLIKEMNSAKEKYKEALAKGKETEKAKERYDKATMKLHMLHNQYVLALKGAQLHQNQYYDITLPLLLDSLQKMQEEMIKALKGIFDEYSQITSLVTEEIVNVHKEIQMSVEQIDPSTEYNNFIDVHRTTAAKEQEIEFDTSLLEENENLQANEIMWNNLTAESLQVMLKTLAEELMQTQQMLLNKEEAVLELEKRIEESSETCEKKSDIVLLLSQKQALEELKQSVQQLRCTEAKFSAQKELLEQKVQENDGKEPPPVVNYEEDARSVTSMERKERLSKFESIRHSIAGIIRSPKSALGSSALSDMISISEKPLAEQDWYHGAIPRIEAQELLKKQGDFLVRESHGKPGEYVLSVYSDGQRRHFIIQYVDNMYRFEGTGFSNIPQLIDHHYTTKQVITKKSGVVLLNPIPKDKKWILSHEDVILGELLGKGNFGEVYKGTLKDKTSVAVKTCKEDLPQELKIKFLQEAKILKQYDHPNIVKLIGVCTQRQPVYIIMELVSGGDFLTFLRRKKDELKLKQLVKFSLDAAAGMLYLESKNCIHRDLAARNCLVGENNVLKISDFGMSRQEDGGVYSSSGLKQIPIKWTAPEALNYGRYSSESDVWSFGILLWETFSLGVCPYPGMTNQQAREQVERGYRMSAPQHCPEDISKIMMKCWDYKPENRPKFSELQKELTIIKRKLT
Experimental: as §1

ICK = target: T35, ICK (Homo sapiens, UniProt Q9UPZ9)
T35 construct: purchased DiscoverX (KINOMEscan)
Experimental: as §1

CHEK2 = target: T36, CHEK2 (Homo sapiens, UniProt O96017)
T36 construct: purchased DiscoverX (KINOMEscan)
Experimental: as §1

COc1cc(/C=C2\N=C(N)NC2=O)ccc1O [Polyandrocarpamine A]
Score (GRK7): 100
Score (CIT): 100
Score (EIF2AK1): 100
Score (CDK4-cyclinD1): 96
Score (NEK6): 100
Score (MELK): 100
Score (MUSK): 56
Score (CDK4-cyclinD3): 98
Score (AURKA): 100
Score [1]: 100
Score (TAK1): 100
Score (DDR1): 100
Score (NEK11): 100
Score [2]: 22
Score (TAOK3): 87
Score (KIT(V559D,V654A)): 100
Score (KIT(A829P)): 91
Score (TYRO3): 100
Score (MLCK): 100
Score (EGFR(E746-A750del)): 100
Score (BIKE): 70
Score (EPHA5): 100
Score (OSR1): 100
Score (MYLK): 98
Score (FLT3(N841I)): 100
Score (CTK): 100
Score (CLK4): 30
Score (ERK3): 82
Score (LRRK2(G2019S)): 100
Score (MRCKB): 100
Score (AURKC): 99
Score (NIM1): 100
Score (GAK): 100
Score (FER): 100
Score (ICK): 100
Score (CHEK2): 100
